Data: patent US20220370464A1, “COMPOSITIONS AND METHODS OF TREATING OR PREVENTING OCULAR INFECTIONS WITH FILOCICLOVIR” (Microbiotix, Inc., priority 2019, published 2022)
Like-named read-outs stand apart in the source and are kept apart here.

What was measured:
AdV3 = assay: Plaque reduction antiviral IC50 assay in A549, AdV3; assay type: cell-based, adenovirus 3; details: Human mastadenovirus B
Description: (§1) The effectiveness of filociclovir to inhibit a number of adenovirus strains associated with conjunctivitis were tested in an in vitro assay. To determine the in vitro IC50 concentrations, i.e., the concentration of filociclovir that inhibits adenovirus plaque formation by 50%, filociclovir and cidofovir (CDV) were tested against a panel of 7 ocular types of adenovirus.
(§2) 42 A549 24-well multiplates (1 per each drug and each virus strain) were prepared. 7 adenovirus serotypes were tested at a time. Virus dilutions from known titer of stock viruses (approx. 100 PFU/0.1 ml) were prepared with AdV3 L, AdV4 H, AdV5 M, AdV7a J, AdV8 E, AdV 19/64 K, and AdV37 ATCC. 0.1 ml (containing approx. 100 PFU) of each of the 7 viruses were plated onto all 24 wells of an A549 multiplate and incubated at 37° C. in a 5% CO2 water-vapor atmosphere for 3 hours.
(§3) Dilutions of filociclovir and cidofovir were prepared at 400, 40, 4.0, 0.4, 0.04, and 0.004 μM in 2× nutrient tissue culture media, following the dilution protocol: 7.5 ml of each of filociclovir and cidofovir dilution was added to a tube and 22.5 ml of methylcellulose in outgrowth medium (OG) was then added to each tube. 1 ml of each filociclovir and cidofovir dilutions was added to an additional 15 ml tube and 3 ml of OG was added to each tube. This was the overlay for the Adv8 plates. Normal methylcellulose overlay medium without any drug was used for the control wells for each plate.
(§4) For each virus plate, 3 wells were overlaid with each of the 6 final filociclovir and cidofovir concentrations (100, 10, 1.0, 0.1, 0.01, and 0.001 μM) and 6 wells with the control media. Plates were incubated at 37° C. in a 5% CO2 water-vapor atmosphere until plaques were visible. When plaques became visible, plates were stained with gentian violet and plaques were counted at 25λ using a dissecting microscope. The IC50 concentrations were determined from Fitted Line Plot regression analysis using Minitab. All assays were performed in triplicate.

AdV64 = assay: Plaque reduction antiviral IC50 assay in A549, AdV64; assay type: cell-based, adenovirus 19/64; details: unidentified adenovirus
Description: as §1, §2, §3, §4

[1] = tested on: panel of ocular adenovirus types (Ad3, Ad4, Ad5, Ad7a, Ad8, Ad19/64, and Ad37); assay: Plaque reduction antiviral IC50 assay, whole panel of ocular adenovirus types; assay type: cell-based, adenovirus Species B, C, D, and E; details: unidentified adenovirus
Description: as §1, §2, §3, §4

AdV5 [2] = assay: Plaque reduction antiviral IC50 assay in A549, AdV5; assay type: cell-based, adenovirus 5; details: Human mastadenovirus C
Description: as §1, §2, §3, §4

AdV5 [3] = assay: Adenovirus/NZW rabbit ocular model; assay type: in vivo, New Zealand White (NZW) rabbit
Description: The ability of filociclovir to inhibit adenovirus-related conjunctivitis was tested in a New Zealand White (NZW) rabbit ocular model.
20 NZW rabbits (1.1-1.4 kg) were given general anesthesia with ketamine & xylazine, topical anesthesia with proparacaine, and corneal scarification (12 cross-hatched strokes of a #25 needle) followed by inoculation in both eyes with 50 μl of […] of AdV5 M (6.0×10^8 PFU/ml). Eyes were closed and gently rubbed for 5 seconds to ensure contact of the virus on all ocular surfaces. All rabbits were treated with analgesia in the form of intramuscular injections of ketoprofen (1.5 mg/kg).
Beginning 2 hours after inoculation, all eyes were cultured for virus. Following topical anesthesia with proparacaine, a single cotton-tipped swab was placed into the lower fornix of each eye, rolled over the cornea into the upper fornix to recover adenovirus from the tear film and corneal and conjunctival surfaces. The swabs from each eye were placed individually into tubes containing 1 ml of outgrowth media and were frozen at −80° C. pending plaque assay.
On Day 1, the rabbits were divided into 4 treatment groups for drug administration as set forth in the chart below. The four treatment groups were 0.5% Filociclovir; 0.1% Filociclovir; 0.5% cidofovir; and the negative vehicle control (10% 2-Hydroxpropyl)-β-cyclodextrin, 0.2% cremophore).
Treatments began on Day 1 and drops were administered with at least a 2-hour interval between drops. The eyes of each rabbit were cultured for virus on days 1, 3, 4, 5, 7, 9, 11, and 14 post-inoculation (PI) at least 1 hour after the final drop. At various times during the course of the experiment, AdV5 titers were determined on A549 cell monolayers using a standard plaque assay. The ocular cultures to be titered were thawed, diluted (1:10) and inoculated onto A549 monolayers. The virus was adsorbed for 3 hours. Following adsorption, 1 ml of media plus 0.5% methylcellulose was added to each well, and the plates were incubated at 37° C. in a 5% CO2-water vapor atmosphere. After 7 days incubation, the cells were stained with 0.5% gentian violet, and the numbers of plaques were counted under a dissecting microscope (25λ). The viral titers were then calculated and expressed as plaque-forming units per milliliter (PFU/ml). The data were analyzed statistically using True Epistat and/or Minitab statistical software. Outcome measures included Daily AdV5-Positive Cultures per Total (FIG. 9), Duration of Shedding (FIG. 10) and Daily Viral Titers (FIG. 11). Significance was established at the p≤0.05 confidence level.

AdV4 = assay: Plaque reduction antiviral IC50 assay in A549, AdV4; assay type: cell-based, adenovirus 4; details: Human mastadenovirus E
Description: as §1, §2, §3, §4

AdV8 = assay: Plaque reduction antiviral IC50 assay in A549, AdV8; assay type: cell-based, adenovirus 8
Description: as §1, §2, §3, §4

[4] = read-out: mean IC50 concentrations across the panel (upper bound)
[5] = read-out: range of mean IC50 concentrations across the panel
[6] = 0.5% topical 2 times daily for 7 days, compared with Vehicle control
[7] = 0.1% topical 4 times daily for 10 days, compared with Vehicle control
[8] = 0.5% filociclovir compared with 0.5% cidofovir
[9] = 0.5% filociclovir compared with the 0.1% filociclovir group
[10] = 0.5% topical 4 times daily for 10 days, compared with Vehicle control

Structure (SMILES)	IC50 (AdV3; read-out: Mean IC50) [µM]	IC50 (AdV3; read-out: Median IC50) [µM]	IC50 (AdV64; read-out: Mean IC50) [µM]	IC50 (AdV64; read-out: Median IC50) [µM]	IC50 [1, 4] [µM]	IC50 [1, 5] [µM]	IC50 (AdV5 [2]; read-out: Mean IC50) [µM]	IC50 (AdV5 [2]; read-out: Median IC50) [µM]	IC50 (AdV4; read-out: Mean IC50) [µM]	IC50 (AdV4; read-out: Median IC50) [µM]	IC50 (AdV8; read-out: Mean IC50) [µM]	IC50 (AdV8; read-out: Median IC50) [µM]	other results
Nc1ccn(C[C@@H](CO)OCP(=O)(O)O)c(=O)n1 [CDV, cidofovir, reference compound]	5.78	6.02	4.09	4.94	< 31	0.487 to 30.3	30.3	38.8	8.71	9.43	0.487	0.474	adenovirus positive cultures per total (FIG. 9) (AdV5 [3]; [6]): fewer number of adenovirus positive cultures per total on Days 7, 9, and 11; adenovirus titers (FIG. 11) (AdV5 [3]; [6]): significantly lower adenovirus titers on Days 3, 4, 5, 7, 9, and 11; duration of shedding (FIG. 10) (AdV5 [3]; [6]): shorter duration of shedding
Nc1nc2c(ncn2/C=C2/CC2(CO)CO)c(=O)[nH]1 [Filociclovir, 2-amino-9-{(Z)-[2,2-bis(hydroxymethyl)cyclopropylidene]methyl}-3,9-dihydro-6H-purin-6-one]	0.778	0.756	1.86	0.424	< 5	0.496 to 4.68	4.68	4.62	4.31	4.24	0.496	0.485	adenovirus positive cultures per total (FIG. 9) (AdV5 [3]; [7]): fewer number of adenovirus positive cultures per total on Days 7, 9, and 11; adenovirus titers (FIG. 11) (AdV5 [3]; [7]): significantly lower adenovirus titers on Days 1, 3, 4, 5, 7, 9, and 11; duration of shedding (FIG. 10) (AdV5 [3]; [7]): shorter duration of shedding; adenovirus positive cultures per total (AdV5 [3]; [8]): fewer number of adenovirus positive cultures per total on Day 4; adenovirus titers (AdV5 [3]; [8]): significantly lower adenovirus titers on Days 1, 3, 4, and 5; adenovirus positive cultures per total (FIG. 9) (AdV5 [3]; [9]): fewer number of adenovirus positive cultures per total on Day 4; adenovirus titers (FIG. 11) (AdV5 [3]; [9]): significantly lower adenovirus titers on Days 3, 4, and 5; adenovirus positive cultures per total (FIG. 9) (AdV5 [3]; [10]): fewer number of adenovirus positive cultures per total on Days 4, 5, 7, 9, and 11; adenovirus titers (FIG. 11) (AdV5 [3]; [10]): significantly lower adenovirus titers on Days 1, 3, 4, 5, 7, 9, and 11; duration of adenovirus shedding (FIG. 10) (AdV5 [3]; [10]): shorter duration of adenovirus shedding
